Article PMC5065007 (Journal of the American Chemical Society, 2016)
Where no end group is shown, it is not given here.

Molecular target: δPKC (Homo sapiens, UniProt Q05655)
Test: AGILE label-free binding assay, δPKC to immobilized peptide

Sequence of δPKC (Q05655 whole entry): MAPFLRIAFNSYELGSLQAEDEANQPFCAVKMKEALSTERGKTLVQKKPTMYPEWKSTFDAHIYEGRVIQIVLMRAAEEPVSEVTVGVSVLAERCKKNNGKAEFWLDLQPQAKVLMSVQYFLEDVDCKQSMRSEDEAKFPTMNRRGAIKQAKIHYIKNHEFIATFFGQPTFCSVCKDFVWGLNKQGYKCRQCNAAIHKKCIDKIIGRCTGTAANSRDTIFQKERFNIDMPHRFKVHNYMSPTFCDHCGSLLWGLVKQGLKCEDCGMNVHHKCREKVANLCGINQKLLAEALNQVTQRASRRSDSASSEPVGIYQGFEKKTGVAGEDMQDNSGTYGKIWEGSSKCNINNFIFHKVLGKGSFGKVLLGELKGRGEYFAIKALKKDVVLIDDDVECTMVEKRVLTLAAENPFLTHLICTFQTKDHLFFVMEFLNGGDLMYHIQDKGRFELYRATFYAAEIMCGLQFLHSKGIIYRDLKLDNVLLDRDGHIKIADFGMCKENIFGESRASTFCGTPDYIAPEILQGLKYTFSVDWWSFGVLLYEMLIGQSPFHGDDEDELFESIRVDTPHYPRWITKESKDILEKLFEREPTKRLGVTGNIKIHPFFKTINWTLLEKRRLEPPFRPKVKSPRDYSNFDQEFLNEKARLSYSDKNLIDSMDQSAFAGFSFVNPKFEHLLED

| IC50 | Kd | Substance |
| --- | --- | --- |
| 53 nM | 53 ± 19 nM | ALSTER [ψPDK] |
| 1250 nM | 1250 nM | ALSAER [ψPDK analog] |
